Results on one molecule are retold here after patent US20110257242A1, “3-PHENYL-3-METHOXYPYRROLIDINE DERIVATIVES AS MODULATORS OF CORTICAL CATECHOLAMINERGIC NEUROTRANSMISSION” (NSAB, FILIAL AF NEUROSEARCH SWEDEN AB, SVERIGE, priority 2008, published 2011).

This experiment deals with MK-801 pre-treated rats. Briefly: Locomotor activity in MK-801 pre-treated rats (antipsychotic activity model). Particulars: MK-801 0.7 mg/kg i.p., no test compound, recorded between 30 and 60 minutes.

As for `C[C@]12N[C@H](Cc3ccccc31)c1ccccc12` [MK-801], the “Locomotor activity, MK-801 alone” value is reported as 48068 counts/30 min.
